# Measured values taken from PubChem BioAssay AID1963441 (Molecular Pharmacology Branch, DTP, NCI, 2024).
# Test system: NCI-H1876 complex spheroid growth, % test/control
# Assay: Anticancer human tumor NCI-H1876 cell line growth inhibition [Asc];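 also: compound exposure lasted 7 days starting three days after seeding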;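 as to viability, T/C: 100% = DMSO vehicle control wells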
# Details: for IC50: curve of first compound; for viability, T/C: stronger effect = lower value
# Method: Multicellular complex tumor spheroid response to apoptosis pathway targeting inhibitors Alrizomadlin, Pelcitoclax, and Dasminapant in combination with a variety of drugs and investigational agents in selected tumor cell lines
# The MDM2 inhibitor alrizomadlin, the Bcl-2/Bcl-xL inhibitor pelcitoclax, and the IAPs inhibitor dasminapant were evaluated both individually and in combination with standard of care and investigational anticancer small molecules within a complex spheroid model of solid tumors. . Complex spheroids include a stromal component modeled by human endothelial cells (HUVEC) and fibroblasts modeled by human mesenchymal stem cells (MSCs). The concentration ranges selected for each drug and investigational agent were based upon clinically achievable concentrations if the clinical Cmax of the agent was known.
# Compounds. The drugs and investigational agents: alrizomadlin (APG-115; NSC831270), pelcitoclax (APG-1252; NSC835773), dasminapant (APG-1387;NSC834197), TAK-243 (NSC785004), copanlisib (NSC809693), olaparib (NSC753686), talazoparib (NSC767125), cobimetinib (NSC 768068), eltanexor (KPT-8602, NSC 794443), abemaciclib (NSC 768073), sotorasib (NSC818433), adagrasib (NSC 831453), MRTX-1133 (NSC 836407), Iadademestat (ORY1001, NSC 806812), and RMC-4630 (NSC839698), were obtained from the NCI Developmental Therapeutics Program Chemical Repository. The FDA-approved anticancer drug set is available from the Developmental Therapeutics Program at https://dtp.cancer.gov/organization/dscb/obtaining/available plates.htm. […] The stock solutions were prepared in dimethyl sulfoxide (DMSO, Sigma-Aldrich, St. Louis, MO, cat. D2650) at 800-fold the tested concentration and stored at -70 degrees C prior to their use. All drugs and investigational agents were tested over a range starting from a high concentration at or near the clinical Cmax and decreasing in half-log increments. If the clinical Cmax for an agent had not been determined, the highest concentration tested was 10 microM.
# The patient-derived cancer (PDC) cell lines include five colon adenocarcinomas: 186277-243-T-J2-PDC, 616215-338-R-J1-PDC, 439559-082-T-J2-PDC, 463943-066-T-J2-PDC, and 519858-162-T-J1-PDC; three pancreatic carcinomas: 323965-272-R-J2-PDC, 521955-158-R6-J3-PDC, and 521955-158-R2-J5-PDC; two uterine sarcomas: 327498-152-R-J2-PDC and 993429-296-R-J1-PDC; two rhabdomyosarcomas: 755483-174-R-J1-PDC and 772245-204-R-J1-PDC; two soft tissue sarcomas: 126254-015-R-J1-PDC and 494315-158-R-J1-PDC; two malignant fibrous histiocytomas: 317291-083-R-J1-PDC and 596521-263-R-J1-PDC; two breast carcinomas: 171881-019-R-J1-PDC and 885512-296-R-J2-PDC; and one ovarian carcinoma: 6556581-035-R-J-PDC were obtained from the NCI PDMR, (https://pdmr.cancer.gov). The established cell lines HSSY-2 synovial sarcoma (RRID:CVCL 8719), SYO-1 synovial sarcoma (RRID:CVCL_7146), MPNST malignant peripheral neural sheath tumor were obtained from the Sloan Kettering Institute. The following established cell lines were purchased from the American Type Culture Collection (ATCC, Manassas, VA), Sor the received from the NCI repository:, PANC-1 pancreatic carcinoma (CRL-1469, RRID:CVCL_0480), OVCAR-5 ovarian carcinoma (RRID:CVCL_1628), OVCAR-8 ovarian carcinoma (RRID:CVCL_1629), , MCF-7 breast carcinoma (CRL-12584, RRID:CVCL_0031), MDA-MB-231 breast carcinoma (CRL-12532, RRID:CVCL_0062), NCI-H1876 small cell lung carcinoma (CRL-5902, RRID:CVCL_1503), NCI-H510A small cell lung carcinoma (HTB-184, RRID:CVCL_1565), NCI-H1417 (CRL-5869, RRID:CVCL_1469), and NCI-H196 small cell lung carcinoma (CRL-5823, RRID:CVCL_1509). Dr. Peter Houghton (Greehey Children's Cancer Research Institute, University of Texas Health Science Center, San Antonio, TX) provided Rh-18 rhabdomyosarcoma (RRID:CVCL_1659). Pooled donor human umbilical vein endothelial cells (HUVEC, Lonza, cat. CC-2519) and human mesenchymal stem cells (hMSC, Lonza, cat. PT-2501) were purchased from Lonza (Walkersville, MD).
# Cell Culture. […]
smiles,measurement,setting,value
O=C(c1ccc(F)c(F)c1Nc1ccc(I)cc1F)N1CC(O)([C@@H]2CCCCN2)C1 + CNC(C)C(=O)NC1CN(S(=O)(=O)c2cccc(S(=O)(=O)N3CCC4CCC(C(=O)NC(c5ccccc5)c5ccccc5)N4C(=O)C(NC(=O)C(C)NC)C3)c2)CCC2CCC(C(=O)NC(c3ccccc3)c3ccccc3)N2C1=O,IC50,second compound 0.00316 µM,> 1000 nM
same,IC50,second compound 0.01 µM,> 1000 nM
same,IC50,second compound 0.0316 µM,> 1000 nM
same,IC50,second compound 0.1 µM,> 1000 nM
same,IC50,second compound 0.316 µM,> 1000 nM
same,IC50,second compound 1 µM,> 1000 nM
same,"viability, T/C","second compound 0.00316 µM, first compound 0.00316 µM",109%
same,"viability, T/C","second compound 0.00316 µM, first compound 0.01 µM",87.3%
same,"viability, T/C","second compound 0.00316 µM, first compound 0.0316 µM",114%
same,"viability, T/C","second compound 0.00316 µM, first compound 0.1 µM",80.5%
same,"viability, T/C","second compound 0.00316 µM, first compound 0.316 µM",80.5%
same,"viability, T/C","second compound 0.00316 µM, first compound 1 µM",70.6%
same,"viability, T/C","second compound 0.01 µM, first compound 0.00316 µM",110%
same,"viability, T/C","second compound 0.01 µM, first compound 0.01 µM",93.6%
same,"viability, T/C","second compound 0.01 µM, first compound 0.0316 µM",96.2%
same,"viability, T/C","second compound 0.01 µM, first compound 0.1 µM",82.3%
same,"viability, T/C","second compound 0.01 µM, first compound 0.316 µM",90.8%
same,"viability, T/C","second compound 0.01 µM, first compound 1 µM",81.7%
same,"viability, T/C","second compound 0.0316 µM, first compound 0.00316 µM",98.5%
same,"viability, T/C","second compound 0.0316 µM, first compound 0.01 µM",90.3%
same,"viability, T/C","second compound 0.0316 µM, first compound 0.0316 µM",102%
same,"viability, T/C","second compound 0.0316 µM, first compound 0.1 µM",87.3%
same,"viability, T/C","second compound 0.0316 µM, first compound 0.316 µM",85.5%
same,"viability, T/C","second compound 0.0316 µM, first compound 1 µM",83.2%
same,"viability, T/C","second compound 0.1 µM, first compound 0.00316 µM",106%
same,"viability, T/C","second compound 0.1 µM, first compound 0.01 µM",103%
same,"viability, T/C","second compound 0.1 µM, first compound 0.0316 µM",96.3%
same,"viability, T/C","second compound 0.1 µM, first compound 0.1 µM",89.8%
same,"viability, T/C","second compound 0.1 µM, first compound 0.316 µM",86.3%
same,"viability, T/C","second compound 0.1 µM, first compound 1 µM",90.5%
same,"viability, T/C","second compound 0.316 µM, first compound 0.00316 µM",106%
same,"viability, T/C","second compound 0.316 µM, first compound 0.01 µM",90.1%
same,"viability, T/C","second compound 0.316 µM, first compound 0.0316 µM",89.9%
same,"viability, T/C","second compound 0.316 µM, first compound 0.1 µM",96.9%
same,"viability, T/C","second compound 0.316 µM, first compound 0.316 µM",97%
same,"viability, T/C","second compound 0.316 µM, first compound 1 µM",72.3%
same,"viability, T/C","second compound 1 µM, first compound 0.00316 µM",107%
same,"viability, T/C","second compound 1 µM, first compound 0.01 µM",93.7%
same,"viability, T/C","second compound 1 µM, first compound 0.0316 µM",99.2%
same,"viability, T/C","second compound 1 µM, first compound 0.1 µM",97.4%
same,"viability, T/C","second compound 1 µM, first compound 0.316 µM",88%
same,"viability, T/C","second compound 1 µM, first compound 1 µM",69.8%
